Reference: US4697022A, “Process for the preparation of optically-active carbazole derivatives, new R- and S-carbazole derivatives and pharmaceutical compositions containing these compounds” (Boehringer Mannheim GmbH, priority 1983, dated 1987)

Tests used:
[1] = tested on: isoprenaline tachycardia; experiment: β-blocking action: inhibition of isoprenaline tachycardia in awake rabbits; format: in vivo, rabbit; conditions: for ED50: Oryctolagus cuniculus, iv, 50% inhibiting dosage, isoprenaline tachycardia, purity >99.4%, read-out: β-blockade ED50%; for β-blocking properties: in words
[2] = tested on: blood vessels (blood pressure); experiment: vasodilation: direct blood pressure lowering after a single i.v. administration in awake spontaneously hypertonic rats (SHR); format: in vivo, rat (spontaneously hypertonic; conditions: for ED (30 mmHg): Rattus norvegicus, iv, dosage for lowering of blood pressure by 30 mm.Hg, awake SHR, single i.v. administration, purity >99.4%
Experimental: (measured as direct blood pressure lowering after a single administration)
In awake, spontaneously hypertonic rats (SHR), catheters were implanted in the arteria femoralis and the vena jugularis. Via the veins, there were injected appropriate dosages of the enantiomers (R-carvedilol and S-carvedilol in dosages of 0.03; 0.1; 0.3; 1.0 and 3 mg/kg. i.v.) and the arterial blood pressure lowering was determined via the arterial pressure catheter (as an expression of the vasodilation). As a measure of the antihypertensive effect, there were calculated the dosages for lowering of the blood pressure by 30 mm.Hg.

SMILES | ED50 ([1]; awake rabbits, i.v.) [mg/kg] | β-blockade: difference factor of the dosages of R- and S-carvedilol ([1]; ratio of ED50% R-carvedilol to S-carvedilol, i.v., awake rabbits) | ED (30 mmHg) [2] [mg/kg] | vasodilation: difference factor of the dosages of R- and S-carvedilol ([2]; ratio of ED-30mmHg R-carvedilol to S-carvedilol, i.v., SHR) | β-blocking properties [1] | β-blocking properties ([1]; listed as Example 8) | dosage for blood pressure lowering of 30 mm.Hg in comparison to β-blockade (times higher) ([2]; S-carvedilol, ED-30mmHg vs β-blockade ED50%)
COc1ccccc1OCCNC[C@@H](O)COc1cccc2[nH]c3ccccc3c12 [R-carvedilol, R-(+)-(1-Carbazol-4-yloxy)-3-[2-(2-methoxyphenoxy)]ethylaminopropan-2-ol] | 3.98 | 160 | 2.96 | 11 |  |  | 
COc1ccccc1OCCNC[C@H](O)COc1cccc2[nH]c3ccccc3c12 [S-carvedilol, S-(-)-(1-Carbazol-4-yloxy)-3-[2-(2-methoxyphenoxy)]ethylaminopropan-2-ol] | 0.025 |  | 0.27 |  | practically only S-carvedilol can be regarded as being a β-blocker | displays β-blocking properties | about 10 times
